Where a SMILES comes first, the peptide text is derived from it. [ ]: non-standard residue; d: D form. The star is where a group is joined. ξ: configuration not given here. Nle(5E-ene,6-CO2Et) = CCOC(=O)/C=C/CC[C@H](N)C(=O)O; Oic(3aξ,7aξ) = O=C(O)[C@@H]1CC2CCCCC2N1; Cbz = O=C(OCc1ccccc1)*
Molecular target: T1, Coagulation factor XIII A chain (Homo sapiens, UniProt P00488)
T1 sequence (P00488 whole entry): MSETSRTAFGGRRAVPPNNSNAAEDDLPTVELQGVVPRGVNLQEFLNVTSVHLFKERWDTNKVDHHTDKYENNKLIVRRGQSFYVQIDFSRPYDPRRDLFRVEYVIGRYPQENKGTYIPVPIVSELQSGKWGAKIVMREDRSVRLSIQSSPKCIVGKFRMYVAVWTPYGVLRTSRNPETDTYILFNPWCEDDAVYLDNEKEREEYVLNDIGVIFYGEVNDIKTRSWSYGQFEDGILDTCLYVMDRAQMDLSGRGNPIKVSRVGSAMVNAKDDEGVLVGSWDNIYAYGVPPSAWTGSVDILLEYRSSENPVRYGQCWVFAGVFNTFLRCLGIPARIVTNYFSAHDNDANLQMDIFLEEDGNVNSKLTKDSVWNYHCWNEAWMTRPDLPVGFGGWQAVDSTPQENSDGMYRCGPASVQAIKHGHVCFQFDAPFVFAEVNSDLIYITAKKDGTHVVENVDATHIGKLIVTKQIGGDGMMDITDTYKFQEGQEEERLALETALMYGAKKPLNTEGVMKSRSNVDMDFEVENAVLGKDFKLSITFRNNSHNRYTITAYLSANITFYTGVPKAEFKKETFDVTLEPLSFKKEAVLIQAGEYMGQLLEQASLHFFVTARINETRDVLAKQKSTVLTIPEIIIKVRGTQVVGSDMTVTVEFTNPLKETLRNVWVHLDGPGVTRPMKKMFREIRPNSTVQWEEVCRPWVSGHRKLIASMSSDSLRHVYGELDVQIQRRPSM
Assay: All measurements were performed in triplicate.

CCOC(=O)/C=C/CC[C@H](NC(=O)OCc1ccccc1)C(=O)N[C@H](C(=O)N1C2CCCCC2C[C@H]1C(=O)N[C@@H](CC(C)C)C(N)=O)C(C)C (stereo partly drawn) (Cbz-[Nle(5E-ene,6-CO2Et)]V[Oic(3aξ,7aξ)]L-NH2)
IC50: > 10 µM

From ChEMBL document CHEMBL5729393, “Inhibitors of blood coagulation factor XIII” (2022)
